Source: patent publication US20250388574A1, “HETEROCYCLIC COMPOUNDS AS TRIGGERING RECEPTOR EXPRESSED ON MYELOID CELLS 2 AGONISTS AND METHODS OF USE” (AMGEN INC., priority 2020, published 2025)
Like-named read-outs stand apart in the source and are kept apart here.

Biological target: hTREM2 (Homo sapiens, UniProt Q9NZC2)
Experiment: Phospho-Syk AlphaScreen/AlphaLISA assay in TREM2 and DAP12 overexpressing HEK293 cells (Example A1)
Assay type: cell-based
Design: expressed in transfected cells
In short: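 Single-cell-cloned HEK293 stably overexpressing TREM2 and DAP12, plated 20,000 cells/well for 20 h, then exposed to compounds (1% DMSO) 45 min at room temperature. Lysates probed for phospho-Syk by AlphaLISA sandwich (anti-pSyk, biotinylated anti-Syk); signal normalized to percent of control (100 nM anti-TREM2 antibody vs isotype) and fitted by 4-parameter logistic.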

[1] = HEK293 cells, read-out: hTREM2 EC50

Sequence of hTREM2 (Q9NZC2 19-230): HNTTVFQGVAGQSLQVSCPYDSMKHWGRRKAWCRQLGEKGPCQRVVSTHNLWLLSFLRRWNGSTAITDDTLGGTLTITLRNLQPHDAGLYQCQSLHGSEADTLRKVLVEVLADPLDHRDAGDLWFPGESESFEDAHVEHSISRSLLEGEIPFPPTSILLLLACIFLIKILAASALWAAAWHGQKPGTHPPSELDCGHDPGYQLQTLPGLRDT
Sequence of hTREM2 (O43914 22-113 partner): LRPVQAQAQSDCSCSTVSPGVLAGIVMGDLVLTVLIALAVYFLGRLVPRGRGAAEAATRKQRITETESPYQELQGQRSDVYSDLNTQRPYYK

`Cc1nc2cc(N3CCO[C@@H](c4cnn(C)c4)C3)nc(-c3ncc(Cl)cc3F)c2c(=O)n1C` [Example 216, (S)-5-(5-chloro-3-fluoropyridin-2-yl)-2,3-dimethyl-7-(2-(1-methyl-1H-pyrazol-4-yl)morpholino)pyrido[4,3-d]pyrimidin-4(3H)-one] was tested, and the Emax (HEK293 cells) was “++++ (Emax>300)” and the EC50 [1] was 0.5 to 3 µM.

In the case of `CCCn1c(C)nc2cc(N3CCOC(CF)C3)nc(-c3ccc(Cl)cc3F)c2c1=O` (centres unmarked) [Example 185, 5-(4-chloro-2-fluorophenyl)-7-(2-(fluoromethyl)morpholino)-2-methyl-3-propylpyrido[4,3-d]pyrimidin-4(3H)-one], the Emax (HEK293 cells) is reported as “+++ (Emax>200 and ≤300)” and the EC50 [1] is reported as 0.5 to 3 µM.

For `COc1cc([C@@H]2C[C@H](c3cc4nc(C)n(C)c(=O)c4c(-c4ccc(Cl)cc4F)n3)CCO2)ccn1` (single isomer, unassigned) [Example 173], the Emax (HEK293 cells) was “+++ (Emax>200 and ≤300)” and the EC50 [1] was 0.5 to 3 µM.

For `Cc1nc2cc(N3CCO[C@@H]([C@H]4CCOC4)C3)nc(-c3ccc(Cl)cc3F)c2c(=O)n1C` (single isomer, unassigned) [Example 42], the Emax (HEK293 cells) was “++++ (Emax>300)” and the EC50 [1] was 0.05 to 0.5 µM.

For `Cc1nc2cc(N3CCC(C(F)(F)F)C3)nc(-c3ccc(Cl)cc3F)c2c(=O)n1C` (centres unmarked) [Example 119, 5-(4-chloro-2-fluorophenyl)-2,3-dimethyl-7-(3-(trifluoromethyl)-1-pyrrolidinyl)pyrido[4,3-d]pyrimidin-4(3H)-one], the Emax (HEK293 cells) was “+++ (Emax>200 and ≤300)” and the EC50 [1] was 0.05 to 0.5 µM.

With `Cc1nc2cc(N3CCO[C@@H](c4cnn(C)c4)C3)nc(-c3ccc(Cl)cc3F)c2c(=O)[nH]1` [Example 145, 5-(4-chloro-2-fluorophenyl)-2-methyl-7-((2S)-2-(1-methyl-1H-pyrazol-4-yl)-4-morpholinyl)pyrido[4,3-d]pyrimidin-4(3H)-one] the Emax (HEK293 cells) was “++ (Emax>100 and ≤200)” and the EC50 [1] was 0.5 to 3 µM.

For `Cc1cc([C@@H]2C[C@H](c3cc4nc(C)n(C)c(=O)c4c(-c4ccc(Cl)cc4F)n3)CCO2)ccn1` (single isomer, unassigned) [Example 170], the Emax (HEK293 cells) was “+++ (Emax>200 and ≤300)” and the EC50 [1] was 0.5 to 3 µM.

With `COc1cc([C@@H]2CN(c3cc4nc(C)n(C)c(=O)c4c(-c4ccc(Cl)cc4F)n3)CCO2)ccn1` [Example 243, (R)-5-(4-chloro-2-fluorophenyl)-7-(2-(2-methoxypyridin-4-yl)morpholino)-2,3-dimethylpyrido[4,3-d]pyrimidin-4(3H)-one] the Emax (HEK293 cells) was “++++ (Emax>300)” and the EC50 [1] was under 0.05 µM.

For `Cc1nc2cc(N3CCC[C@@H](C4CNC4)C3)nc(-c3ccc(Cl)cc3F)c2c(=O)n1C` [Example 251, (S)-7-(3-(azetidin-3-yl)piperidin-1-yl)-5-(4-chloro-2-fluorophenyl)-2,3-dimethylpyrido[4,3-d]pyrimidin-4(3H)-one], the Emax (HEK293 cells) was “++ (Emax>100 and ≤200)” and the EC50 [1] was 3 to 100 µM.

In the case of `CCCn1c(C)nc2cc(N3CCO[C@@H](c4cnn(C)c4)C3)nc(-c3ncc(Cl)cc3F)c2c1=O` [Example 153, 5-(5-chloro-3-fluoro-2-pyridinyl)-2-methyl-7-((2S)-2-(1-methyl-1H-pyrazol-4-yl)-4-morpholinyl)-3-propylpyrido[4,3-d]pyrimidin-4(3H)-one], the Emax (HEK293 cells) is reported as “++++ (Emax>300)” and the EC50 [1] is reported as 0.05 to 0.5 µM.

`Cc1nc2cc(N3CCO[C@H](c4ccsc4)C3)nc(-c3ccc(Cl)cc3F)c2c(=O)n1C` [Example 240, (R)-5-(4-chloro-2-fluorophenyl)-2,3-dimethyl-7-(2-(thiophen-3-yl)morpholino)pyrido[4,3-d]pyrimidin-4(3H)-one] was tested, and the Emax (HEK293 cells) was “++++ (Emax>300)” and the EC50 [1] was 3 to 100 µM.

For `Cc1cnc2n1CCN(c1cc3nc(C)n(C)c(=O)c3c(-c3ccc(Cl)cc3F)n1)C2` [Example 223, 5-(4-chloro-2-fluorophenyl)-2,3-dimethyl-7-(3-methyl-5,6-dihydroimidazo[1,2-a]pyrazin-7(8H)-yl)pyrido[4,3-d]pyrimidin-4(3H)-one], the Emax (HEK293 cells) was “++ (Emax>100 and ≤200)” and the EC50 [1] was 3 to 100 µM.

For `CCCn1c(C)nc2cc(N3CCO[C@@H](C(F)(F)F)C3)nc(-c3ccc(Cl)cc3F)c2c1=O` [Example 179, (R)-5-(4-chloro-2-fluorophenyl)-2-methyl-3-propyl-7-(2-(trifluoromethyl)morpholino)pyrido[4,3-d]pyrimidin-4(3H)-one], the Emax (HEK293 cells) was “++++ (Emax>300)” and the EC50 [1] was 0.5 to 3 µM.

With `CCCn1c(C)nc2cc(N3CCO[C@H](C(F)F)C3)nc(-c3ccc(Cl)cc3F)c2c1=O` [Example 191, (S)-5-(4-chloro-2-fluorophenyl)-7-(2-(difluoromethyl)morpholino)-2-methyl-3-propylpyrido[4,3-d]pyrimidin-4(3H)-one] the Emax (HEK293 cells) was “++++ (Emax>300)” and the EC50 [1] was 0.5 to 3 µM.

For `COc1cc([C@@H]2C[C@@H](c3cc4nc(C)n(C)c(=O)c4c(-c4ccc(Cl)cc4F)n3)CCO2)ccn1` [Example 268, 5-(4-chloro-2-fluorophenyl)-7-((2S,4S)-2-(2-methoxypyridin-4-yl)tetrahydro-2H-pyran-4-yl)-2,3-dimethylpyrido[4,3-d]pyrimidin-4(3H)-one], the Emax (HEK293 cells) was “++++ (Emax>300)” and the EC50 [1] was 0.05 to 0.5 µM.

Work on `Cc1nc2cc(N3CCO[C@@H](c4cnn(C(F)CF)c4)C3)nc(-c3ccc(Cl)cc3F)c2c(=O)n1C` (stereo partly drawn) [Example 135, 5-(4-chloro-2-fluorophenyl)-7-((2S)-2-(1-(1,2-difluoroethyl)-1H-pyrazol-4-yl)-4-morpholinyl)-2,3-dimethylpyrido[4,3-d]pyrimidin-4(3H)-one] yielded an EC50 (hTREM2 EC50, HEK293 cells) of 0.05 to 0.5 µM.

With `Cc1nc2cc(N3CCC(C(F)F)C3)nc(-c3ccc(Cl)cc3F)c2c(=O)n1C` (centres unmarked) [Example 120, 5-(4-chloro-2-fluorophenyl)-7-(3-(difluoromethyl)-1-pyrrolidin-yl)-2,3-dimethylpyrido[4,3-d]pyrimidin-4(3H)-one] the Emax (HEK293 cells) was “+++ (Emax>200 and ≤300)” and the EC50 [1] was 0.05 to 0.5 µM.

With `Cc1nc2cc(N3CCOC(C)(c4cnn(C)c4)C3)nc(-c3ccc(Cl)cc3F)c2c(=O)n1C` (centres unmarked) [Example 31, 5-(4-chloro-2-fluorophenyl)-2,3-dimethyl-7-(2-methyl-2-(1-methyl-1H-pyrazol-4-yl)-4-morpholinyl)pyrido[4,3-d]pyrimidin-4(3H)-one] the Emax (HEK293 cells) was “++++ (Emax>300)” and the EC50 [1] was 3 to 100 µM.

In the case of `Cc1ccc([C@@H]2CN(c3cc4nc(C)n(C)c(=O)c4c(-c4ccc(Cl)cc4F)n3)CCO2)cn1` (single isomer, unassigned) [Example 140], the Emax (HEK293 cells) is reported as “++++ (Emax>300)” and the EC50 [1] is reported as 0.05 to 0.5 µM.

`CCCn1c(C)nc2cc(N3CCn4ccnc4C3)nc(-c3ccc(Cl)cc3F)c2c1=O` [Example 182, 5-(4-chloro-2-fluorophenyl)-7-(5,6-dihydroimidazo[1,2-a]pyrazin-7(8H)-yl)-2-methyl-3-propylpyrido[4,3-d]pyrimidin-4(3H)-one] was tested, and the Emax (HEK293 cells) was “+++ (Emax>200 and ≤300)” and the EC50 [1] was 3 to 100 µM.

In the case of `Cc1nc2cc(N3CCO[C@@H]([C@@H]4CCO4)C3)nc(-c3ccc(Cl)cc3F)c2c(=O)n1C` (single isomer, unassigned) [Example 39], the Emax (HEK293 cells) is reported as “+++ (Emax>200 and ≤300)” and the EC50 [1] is reported as 0.5 to 3 µM.

In the case of `CCCn1c(C)nc2cc(N3CCO[C@H](c4cnn(C)c4)C3)nc(-c3ncc(Cl)cc3C)c2c1=O` [Example 195, (R)-5-(5-chloro-3-methylpyridin-2-yl)-2-methyl-7-(2-(1-methyl-1H-pyrazol-4-yl)morpholino)-3-propylpyrido[4,3-d]pyrimidin-4(3H)-one], the Emax (HEK293 cells) is reported as “+ (Emax>45 and ≤100)” and the EC50 [1] is reported as 3 to 100 µM.

In the case of `Cc1nc2cc(N3CCC[C@H](C4CN(C)C4)C3)nc(-c3ccc(Cl)cc3F)c2c(=O)n1C` [Example 252, (R)-5-(4-chloro-2-fluorophenyl)-2,3-dimethyl-7-(3-(1-methylazetidin-3-yl)piperidin-1-yl)pyrido[4,3-d]pyrimidin-4(3H)-one], the Emax (HEK293 cells) is reported as “+++ (Emax>200 and ≤300)” and the EC50 [1] is reported as 3 to 100 µM.

`Cc1nc2cc(N3CCCC(C4CNC(=O)C4)C3)nc(-c3ccc(Cl)cc3F)c2c(=O)n1C` (centres unmarked) [Example 106, 5-(4-chloro-2-fluorophenyl)-2,3-dimethyl-7-(3-(5-oxo-3-pyrrolidinyl)-1-piperidinyl)-pyrido[4,3-d]pyrimidin-4(3H)-one] was tested, and the Emax (HEK293 cells) was “+++ (Emax>200 and ≤300)” and the EC50 [1] was 0.05 to 0.5 µM.

In the case of `Cc1nc2cc([C@H]3CCO[C@@H](c4cccnc4)C3)nc(-c3ccc(Cl)cc3F)c2c(=O)n1C` (single isomer, unassigned) [Example 177], the Emax (HEK293 cells) is reported as “++++ (Emax>300)” and the EC50 [1] is reported as 0.05 to 0.5 µM.

`CCCn1c(C)nc2cc(N3CCO[C@H](C(F)F)C3)nc(-c3ccc(Cl)cc3F)c2c1=O` [Example 183, (S)-5-(4-chloro-2-fluorophenyl)-7-(2-(difluoromethyl)morpholino)-2-methyl-3-propylpyrido[4,3-d]pyrimidin-4(3H)-one] was tested, and the Emax (HEK293 cells) was “+++ (Emax>200 and ≤300)” and the EC50 [1] was 0.5 to 3 µM.

For `Cc1nc2cc(N3CCCC(N4CCC4)C3)nc(-c3ccc(Cl)cc3F)c2c(=O)n1C` (centres unmarked) [Example 110, 7-(3-(1-azetidinyl)-1-piperidinyl)-5-(4-chloro-2-fluorophenyl)-2,3-dimethylpyrido[4,3-d]pyrimidin-4(3H)-one], the Emax (HEK293 cells) was “++++ (Emax>300)” and the EC50 [1] was 0.5 to 3 µM.

For `Cc1nc2cc(N3CCC[C@H](c4ccccc4)C3)nc(-c3ccc(Cl)cc3F)c2c(=O)n1C` [Example 213, (R)-5-(4-chloro-2-fluorophenyl)-2,3-dimethyl-7-(3-phenylpiperidin-1-yl)pyrido[4,3-d]pyrimidin-4(3H)-one], the Emax (HEK293 cells) was “++++ (Emax>300)” and the EC50 [1] was 3 to 100 µM.

With `Cc1nc2cc(N3CC[C@@H](C(F)F)C3)nc(-c3ccc(Cl)cc3F)c2c(=O)n1C` [Example 258, (R)-5-(4-chloro-2-fluorophenyl)-7-(3-(difluoromethyl)pyrrolidin-1-yl)-2,3-dimethylpyrido[4,3-d]pyrimidin-4(3H)-one] the Emax (HEK293 cells) was “+++ (Emax>200 and ≤300)” and the EC50 [1] was 3 to 100 µM.

With `CCCn1c(C)nc2cc(N3CCO[C@H](c4ccnn4C)C3)nc(-c3ccc(Cl)cc3F)c2c1=O` [Example 154, 5-(4-chloro-2-fluorophenyl)-2-methyl-7-((2S)-2-(1-methyl-1H-pyrazol-5-yl)-4-morpholinyl)-3-propylpyrido[4,3-d]pyrimidin-4(3H)-one] the Emax (HEK293 cells) was “++++ (Emax>300)” and the EC50 [1] was 3 to 100 µM.
